The text below walks through data of patent US20080220416A1, “Compositions for Inhibiting Cell Growth and Inducing Apoptosis in Cancer Cells and Methods of Use Thereof” (THE BOARD OF TRUSTEES OF THE UNIVERSITY OF ILLINOI, priority 2004, published 2008).

One experiment has as its system NOXA. The experiment in a line: Bortezomib on NOXA in SAOS2 osteogenic sarcoma cells (Western blot). The class given is cell-based. The settings on record: SAOS2, p53-null; 1 μM; 24 hr exposure. How it is done: To test whether the NOXA inducing effect of bortezomib is limited to melanomas, SAOS2 cells (ATTC, Rockville, Md.), an osteogenic sarcoma cell line (p53-null) was exposed to 1 μM bortezomib. SAOS2 cells were tested for p53 expression and induction of NOXA expression before and during a 24 hr exposure to bortezomib (1 μM). The cells were assayed by Western blot using antibodies to NOXA, p53 and β-actin as described above.
Background: Immunoblotting shows a protein as a band on a membrane.

Another experiment concerns normal human melanocytes. Kind of experiment: Apoptosis and cell cycle of normal human melanocytes treated with z-Leu-Leu-Nle-CHO. The class given is cell-based. The procedure:
(§1) The effect of z-Leu-Leu-Nle-CHO on apoptosis was tested in vitro using normal human melanocytes and several melanoma cell cultures. Prior to testing, cutaneous (C8161, SK-MeI-28, SK-MeI-100, SK-MeI-5, C81-61), uveal or ocular (MUM2B, MUM2C, OCM-1A), and pulmonary metastases (RJ002L) melanoma cell lines were maintained in RPMI supplemented with 10% FBS. Normal human melanocytes were isolated from neonatal foreskins as previously described (Qin J et al., 2004, Mol Cancer Ther 3:895-902) and cultured with medium 154 containing growth supplements (Cascade Biologics, Portland, Oreg.).
(§2) To assess the effect of z-Leu-Leu-Nle-CHO on the cell lines, the cells were grown in suitable culture media. Highly proliferating cells (i.e., cells that had reached approximately 30% confluency) were exposed to z-Leu-Leu-Nle-CHO as described below. […]
(§3) Following treatment with z-Leu-Leu-Nle-CHO, the melanoma and melanocyte cell cultures were assayed for apoptotic cells using the APO TARGET Annexin V FITC staining kit (Biosource, Camarillo, Calif.) according to the manufacturer's instructions followed by flow cytometric analysis using FACScaliber (Becton Dickinson, Palo Alto, Calif.) as described in Qin, J. et al., 2001, Nat Med 7:385-386. In some cases, cell cycle and apoptosis analysis was measured using propidium iodide staining and flow cytometry as described. […]

The subject of a further experiment is PC-3 prostate cells. Kind of experiment: z-Leu-Leu-Nle-CHO on NOXA and apoptosis in PC-3 prostate cells. The class given is cell-based. The settings on record: 10 μM.
The test system of experiment [1] is cytochrome C and Smac/DLABLO. Kind of experiment: Mitochondrial integrity by Western blot in RJ002L melanoma cells. It is filed as cell-based, human. The settings on record: 10 μM. How it is done:
Western blot analyses following z-Leu-Leu-Nle-CHO and control treatment of RJ002L melanoma cells were performed to determine the effect of z-Leu-Leu-Nle-CHO on pro-survival and pro-apoptotic proteins. Whole cell extracts were prepared and analyzed as described by Denning, M. F. et al., 1998, J Biol Chem 273: 29995-30002, 1998. The enriched mitochondria pellet and mitochondria-free cytosol of melanoma cells were prepared with the APO ALERT cell fraction kit (Clontech Laboratories, Inc. Palo Alto, Calif.) according to the manufacturer's instructions. For Western blot analysis, equal amounts of protein extracted from each sample (20-30 μg) were loaded into pre-cast 7% NuPAGE Tris-acetate gels or 4-12% NuPAGE Bis-tris gels (Invitrogen). Proteins were separated by SDS-PAGE and transferred to polyvinylidene difluoride membranes (Bio-Rad, Hercules, Calif.) using Invitrogen's buffering system. The indicated primary antibodies were incubated for indicated period of time, washed, and visualized by incubation with horseradish peroxidase-conjugated secondary antibodies and chemiluminescent reagents (Roche Diagnostics Corporation, Indianapolis, Ind.). […]
Mitochondrial integrity before and after exposure to z-Leu-Leu-Nle-CHO was evaluated using Western blot analysis as described above.

Another experiment relates to melanoma cell lines. The experiment in a line: Apoptosis of melanoma cell lines treated with z-Leu-Leu-Nle-CHO (Annexin V FITC / propidium iodide flow cytometry). It is filed as cell-based, human. The settings on record: each of nine melanoma cell lines; 10 μM for 24 h. How it is done:
as §1, §2, §3
(In general: A flow cytometer gives signals particle by particle.)

Square brackets hold non-standard residues; d marks the D form. Peptide text beside a SMILES is read from it. * marks the point of attachment. Nle = CCCC[C@H](N)C(=O)O; Cbz = O=C(OCc1ccccc1)*

With `CC(C)C[C@H](NC(=O)[C@H](Cc1ccccc1)NC(=O)c1cnccn1)B(O)O` [bortezomib, N-(2-pyrazine)carbonyl-L-phenylalanine-L-leucine boronic acid], the “time course of NOXA induction” value with NOXA is “induction of NOXA occurred beginning at 3-6 hrs with more prominent levels detected at 18-24 hrs”.

On to `CCCC[C@@H](C=O)NC(=O)[C@H](CC(C)C)NC(=O)[C@H](CC(C)C)NC(=O)OCc1ccccc1` [z-Leu-Leu-Nle-CHO, N-benzyloxycarbonyl-leucyl-leucyl-norleucinal] (Cbz-Leu-Leu-[Nle]-aldehyde), for which the cell cycle effect entry with normal human melanocytes (10 μM for 24 h) is recorded as “induce a G2/M growth arrest”. The induction of apoptosis result is on record as “did not significantly induce apoptosis” in the experiment on normal human melanocytes (MC004, MC007, 1-10 μM for 18 h) and “triggered a dose-dependent increase in apoptosis” in the experiment on melanoma cell lines. In addition, in the experiment on PC-3 prostate cells (PC-3, p53 null), the NOXA expression result is listed as “induced expression of NOXA”. The dead cells in the experiment on PC-3 prostate cells (PC-3, after 24 hrs, data not shown) is greater than 50%. The “release of cytochrome C and Smac/DLABLO from mitochondria” value in experiment [1] was “released into the cytoplasm of RJ002L melanoma cells as early as 1 hr”.
